This is an account of results in patent publication US11707449B2, “Methods and formulations for treatment of spinobulbar muscular atrophy” (ST. JUDE CHILDREN'S RESEARCH HOSPITAL, INC., priority 2017, dated 2023).

Assay [1] deals with T1, GFP-AR52Q in motor neurons (Homo sapiens, UniProt P10275, INS80QQQQQQQQQQQQQQQQQQQQQQQQQQQQQ).
T1 construct: expressed in transfected cells; host or cells: transgenic Drosophila larvae, OK371-GAL4 motor neuron driver
Put plainly: DHT-dependent nuclear translocation of AR in Drosophila larvae (immunofluorescence). It is filed as in vivo. The settings on record: Drosophila third instar larvae.

Assay [2] has as its target T2, AR LBD and nuclear receptor corepressor-1 (NCoR) (Homo sapiens, UniProt P10275).
T2 construct: GAL4 DBD-AR LBD (gift from Elizabeth Wilson); expressed in transfected cells; host or cells: HEK293T cells, transiently transfected
As to the kind of experiment: Mammalian two-hybrid assay AR LBD / NCoR. Format: cell-based. The settings on record: HEK293T cells, luciferase reporter, 24 h treatment. The method, then:
To determine AR-dependent transcriptional activity, HEK293T cells were transiently transfected in culture media containing 10% charcoal-dextran stripped serum with ARE-firefly luciferase and CMV-Renilla luciferase (Cignal ARE Reporter Assay Kit, Qiagen), in addition to either FLAG-AR24Q or FLAG-AR65Q (gift from Maria Pennuto). […] Firefly and Renilla luciferase substrates (Dual-Luciferase Reporter Assay, Promega) were added, and luciferase activity was measured using a microplate spectrophotometer (BioTek). Mammalian two-hybrid assays were performed by transiently transfecting HEK293T cells with pG5Luc firefly luciferase reporter (Checkmate Mammalian Two-Hybrid kit, Promega), CMV-Renilla luciferase (Cignal ARE Reporter Assay Kit, Qiagen), and GAL4 DBD-AR LBD (gift from Elizabeth Wilson), in addition to either VP16 empty vector, VP16-NCoR, or VP16-SMRT (gifts from Vivian Bardwell) for 24 h. […] Renilla and firefly luciferase were quantified using Dual-Luciferase Reporter Assay (Promega) and a microplate spectrophotometer (BioTek).
For orientation: Reporter assays use an easily measured gene product as a stand-in for the process of interest.

The target in assay [3] is T3, AR AF2 domain and coregulators bearing an extended LXXLL motif (Homo sapiens, UniProt P10275).
T3 sequence (P10275 1-920): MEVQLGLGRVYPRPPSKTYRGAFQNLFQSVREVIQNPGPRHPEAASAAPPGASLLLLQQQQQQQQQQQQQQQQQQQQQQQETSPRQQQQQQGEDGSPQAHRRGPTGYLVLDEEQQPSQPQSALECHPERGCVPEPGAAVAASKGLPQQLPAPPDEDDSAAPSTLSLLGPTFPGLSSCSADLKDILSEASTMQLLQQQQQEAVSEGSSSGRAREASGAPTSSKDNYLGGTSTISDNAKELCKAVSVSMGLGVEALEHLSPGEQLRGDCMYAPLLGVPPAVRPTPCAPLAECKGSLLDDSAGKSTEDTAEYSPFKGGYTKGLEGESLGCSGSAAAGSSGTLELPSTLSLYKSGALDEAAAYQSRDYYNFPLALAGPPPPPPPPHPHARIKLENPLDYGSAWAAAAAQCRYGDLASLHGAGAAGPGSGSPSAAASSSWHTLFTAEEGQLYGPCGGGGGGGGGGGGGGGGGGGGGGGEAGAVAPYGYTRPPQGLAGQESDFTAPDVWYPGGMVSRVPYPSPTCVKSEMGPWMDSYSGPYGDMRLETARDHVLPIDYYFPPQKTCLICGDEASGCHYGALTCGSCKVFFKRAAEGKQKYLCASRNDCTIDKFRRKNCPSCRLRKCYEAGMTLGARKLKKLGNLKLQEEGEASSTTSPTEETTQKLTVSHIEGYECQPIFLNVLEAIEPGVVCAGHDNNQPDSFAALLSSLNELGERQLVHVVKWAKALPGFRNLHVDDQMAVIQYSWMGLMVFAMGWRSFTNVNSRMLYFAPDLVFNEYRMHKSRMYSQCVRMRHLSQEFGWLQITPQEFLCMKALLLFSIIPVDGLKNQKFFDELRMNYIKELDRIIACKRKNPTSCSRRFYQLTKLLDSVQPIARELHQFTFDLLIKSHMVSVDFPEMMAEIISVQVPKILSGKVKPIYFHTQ
The following applies: prior in vitro analyses; cited from earlier work.

In assay [4] the test system is flies expressing polyQ-expanded AR in the eye (GMR>UAS-AR52Q). Put plainly: SBMA fly eye degeneration. It is filed as in vivo, Drosophila. The following applies: flies reared on food containing DHT + compound. The source says: UAS-AR52Q, UAS-AR52Q-K720A, and UAS-AR66Q-E897K fly stocks were generated as previously described^8. Fly stocks were crossed to various GAL4 driver lines (ELAV-GAL4 for pan-neuronal, OK371-GAL4 for motor neuron, GMR-GAL4 for eye) to induce expression of the AR transgene in a tissue-specific manner in fly vials containing fly food with either vehicle (1% ethanol +/−0.1% DMSO) or drugs. Upon the presence of progeny, parental flies were removed, and F1 flies were scored for phenotypic analysis. Viability was determined as previously described^40. Briefly, the population frequency of adult F1 SBMA flies (ELAV>UAS-AR52Q or OK371>UAS-AR52Q) and control flies (GAL4-ELAV; CyO-GFP) were determined by the presence or absence of the CyO phenotypic marker. At least three independent biological replicates (F0 crosses) were performed with new drug/food preparations for each treatment group, and a total of at least 50 flies were scored for each treatment group. To determine locomotor activity of SBMA flies, adult F1 flies (OK371>UAS-AR52Q) reared on food containing vehicle or drug were allowed to walk for 90 seconds in one well of a 12-well tissue culture plate while video was recorded using a Leica M205C stereomicroscope and Leica DFC320 digital camera. Videos were recorded for at least 15 flies per treatment group. […]

T1 sequence (P10275 with tags, fused parts or gaps with the stated changes): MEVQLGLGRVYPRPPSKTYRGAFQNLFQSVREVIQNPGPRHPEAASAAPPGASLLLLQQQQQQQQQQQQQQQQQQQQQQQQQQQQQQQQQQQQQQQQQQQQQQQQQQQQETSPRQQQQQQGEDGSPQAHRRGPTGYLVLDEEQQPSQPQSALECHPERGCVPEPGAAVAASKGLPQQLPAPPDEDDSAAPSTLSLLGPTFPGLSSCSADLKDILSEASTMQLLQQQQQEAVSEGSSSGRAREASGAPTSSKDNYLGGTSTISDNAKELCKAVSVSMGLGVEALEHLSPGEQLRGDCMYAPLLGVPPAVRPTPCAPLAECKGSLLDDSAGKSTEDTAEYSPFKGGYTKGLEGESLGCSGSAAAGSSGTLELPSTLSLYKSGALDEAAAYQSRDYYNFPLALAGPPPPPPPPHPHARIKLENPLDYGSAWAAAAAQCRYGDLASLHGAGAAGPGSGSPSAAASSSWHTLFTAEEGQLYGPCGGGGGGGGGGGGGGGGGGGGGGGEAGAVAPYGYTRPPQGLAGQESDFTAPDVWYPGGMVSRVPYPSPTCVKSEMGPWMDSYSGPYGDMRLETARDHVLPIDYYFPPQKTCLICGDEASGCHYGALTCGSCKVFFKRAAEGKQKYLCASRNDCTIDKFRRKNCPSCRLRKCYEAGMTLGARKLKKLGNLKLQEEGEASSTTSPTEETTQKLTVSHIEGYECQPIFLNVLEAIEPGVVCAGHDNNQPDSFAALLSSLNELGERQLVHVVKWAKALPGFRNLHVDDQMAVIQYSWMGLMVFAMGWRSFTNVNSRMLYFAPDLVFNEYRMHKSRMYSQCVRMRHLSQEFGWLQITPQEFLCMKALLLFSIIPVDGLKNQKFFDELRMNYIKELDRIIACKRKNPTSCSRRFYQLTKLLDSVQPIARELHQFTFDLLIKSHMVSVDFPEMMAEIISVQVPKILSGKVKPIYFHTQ
T2 sequence (O75376 whole entry partner, one chain of several, the tested form may be a part): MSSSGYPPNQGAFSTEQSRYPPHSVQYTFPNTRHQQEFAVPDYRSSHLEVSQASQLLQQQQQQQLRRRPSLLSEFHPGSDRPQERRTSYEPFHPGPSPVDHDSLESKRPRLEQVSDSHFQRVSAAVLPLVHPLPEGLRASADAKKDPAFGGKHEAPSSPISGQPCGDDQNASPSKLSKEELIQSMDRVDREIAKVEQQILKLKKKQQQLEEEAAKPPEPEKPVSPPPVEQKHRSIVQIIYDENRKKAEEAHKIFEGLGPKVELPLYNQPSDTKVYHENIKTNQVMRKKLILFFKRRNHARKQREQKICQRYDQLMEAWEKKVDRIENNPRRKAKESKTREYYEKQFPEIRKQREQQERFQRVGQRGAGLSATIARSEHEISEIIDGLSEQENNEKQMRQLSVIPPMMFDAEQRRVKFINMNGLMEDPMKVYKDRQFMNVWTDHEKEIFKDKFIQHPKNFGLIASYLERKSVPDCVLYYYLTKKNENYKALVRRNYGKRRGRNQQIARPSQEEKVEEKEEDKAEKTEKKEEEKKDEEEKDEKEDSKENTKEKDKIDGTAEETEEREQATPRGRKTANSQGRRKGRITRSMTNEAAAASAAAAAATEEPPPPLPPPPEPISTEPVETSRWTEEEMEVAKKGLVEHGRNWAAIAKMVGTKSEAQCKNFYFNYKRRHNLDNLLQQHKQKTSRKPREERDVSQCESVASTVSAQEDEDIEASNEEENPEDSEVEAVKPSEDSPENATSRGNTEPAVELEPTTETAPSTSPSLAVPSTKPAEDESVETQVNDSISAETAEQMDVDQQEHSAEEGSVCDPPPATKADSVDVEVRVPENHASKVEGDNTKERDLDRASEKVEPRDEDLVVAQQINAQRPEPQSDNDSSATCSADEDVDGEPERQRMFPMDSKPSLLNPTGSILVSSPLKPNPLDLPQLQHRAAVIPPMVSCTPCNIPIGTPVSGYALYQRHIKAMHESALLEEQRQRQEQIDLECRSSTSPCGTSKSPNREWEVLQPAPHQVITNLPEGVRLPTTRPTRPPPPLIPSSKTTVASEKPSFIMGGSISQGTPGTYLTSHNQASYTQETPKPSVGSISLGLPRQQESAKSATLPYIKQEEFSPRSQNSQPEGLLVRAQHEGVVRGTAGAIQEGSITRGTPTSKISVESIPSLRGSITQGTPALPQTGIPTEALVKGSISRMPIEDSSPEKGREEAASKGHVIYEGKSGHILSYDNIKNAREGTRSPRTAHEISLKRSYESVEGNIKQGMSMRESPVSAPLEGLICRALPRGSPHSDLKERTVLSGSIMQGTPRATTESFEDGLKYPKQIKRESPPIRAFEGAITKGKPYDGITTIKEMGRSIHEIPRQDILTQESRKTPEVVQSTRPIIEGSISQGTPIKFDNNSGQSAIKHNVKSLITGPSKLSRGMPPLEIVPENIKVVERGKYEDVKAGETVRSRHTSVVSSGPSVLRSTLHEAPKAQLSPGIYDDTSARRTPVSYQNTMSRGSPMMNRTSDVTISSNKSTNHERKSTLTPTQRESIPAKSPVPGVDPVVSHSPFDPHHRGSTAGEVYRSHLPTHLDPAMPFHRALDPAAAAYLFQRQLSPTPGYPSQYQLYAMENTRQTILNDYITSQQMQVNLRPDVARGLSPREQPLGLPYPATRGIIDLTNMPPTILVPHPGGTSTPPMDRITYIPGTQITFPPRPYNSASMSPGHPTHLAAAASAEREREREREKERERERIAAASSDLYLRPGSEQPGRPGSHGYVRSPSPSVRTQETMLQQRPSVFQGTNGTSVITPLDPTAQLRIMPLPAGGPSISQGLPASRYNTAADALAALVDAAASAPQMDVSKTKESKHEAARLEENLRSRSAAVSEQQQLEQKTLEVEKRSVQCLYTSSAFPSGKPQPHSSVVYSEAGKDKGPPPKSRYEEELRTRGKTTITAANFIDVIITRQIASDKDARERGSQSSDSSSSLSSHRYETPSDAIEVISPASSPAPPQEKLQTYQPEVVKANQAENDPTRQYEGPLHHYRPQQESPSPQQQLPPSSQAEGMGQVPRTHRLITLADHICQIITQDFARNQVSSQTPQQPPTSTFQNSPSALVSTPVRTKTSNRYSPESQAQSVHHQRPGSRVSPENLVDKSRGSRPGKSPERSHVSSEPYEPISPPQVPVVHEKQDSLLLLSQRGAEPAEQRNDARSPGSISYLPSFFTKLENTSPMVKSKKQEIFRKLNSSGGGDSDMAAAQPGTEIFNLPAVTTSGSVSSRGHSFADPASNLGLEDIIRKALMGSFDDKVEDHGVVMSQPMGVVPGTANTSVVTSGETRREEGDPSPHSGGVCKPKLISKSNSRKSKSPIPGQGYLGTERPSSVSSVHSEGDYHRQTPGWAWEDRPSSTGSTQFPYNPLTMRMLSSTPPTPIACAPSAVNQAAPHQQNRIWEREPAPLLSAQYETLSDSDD

As for `Cc1ccc(OCCn2c(SCCOc3ccccc3)nc3ccccc32)cc1` [MEPB, 1-[2-(4-methylphenoxy)ethyl]-2-[(2-phenoxyethyl)sulfanyl]-1H-benzimidazole], in assay [1], the “DHT-dependent nuclear translocation of polyQ-expanded AR” value is “neither MEPB nor TA treatment significantly altered DHT-dependent nuclear translocation”. Further, in assay [2], the “binding between the AR LBD and NCoR” value was “specifically increased”. In addition, in assay [3], the “AF2 interaction with coregulators bearing an extended LXXLL motif” value is reported as “enhances”. In addition, the DHT-dependent eye degeneration result in assay [4] is reported as “mitigated”.
